The results in this text go back to patent US8628961B2, “Small molecule antagonists of phosphatidylinositol-3,4,5-triphosphate (PIP3) and uses thereof” (Tufts University, priority 2010, dated 2014).

Assay [1] relates to SV40-transformed mouse adult lung fibroblasts. The experiment in a line: Viability of Akt1-expressing versus Akt1-3 triple knockout fibroblasts. It is filed as cell-based. An excerpt: Shaughnessy J D (2008) Nature 454:172-3; Weinstein I G (2002) Science 297:63-4. Therefore, the possibility that PIT-1 may cause preferential cell death in the cells containing elevated PIP3 levels was examined. […] Li D M et al. (1998) Proc Natl Acad Sci USA 95:15406-11. […] Neshat M S et al. (2001) Proc Natl Acad Sci USA 98:10314-9.

The subject of a further assay is HUVEC cells. Kind of assay: HUVEC migration, wound healing and transwell assays. It is filed as cell-based, human. The procedure:
Two models of cell migration were used, a transwell migration model and a wound closure model. Migration of cancer and endothelial cells was evaluated using 24-transwell Boyden chamber (Costar, Bedford, Mass.) with a polystyrene membrane (6.5 mm diameter, 10 μm thickness, and 8 μm pore size). Cells were suspended in serum-free media and seeded in the upper compartment of each well (2×10^4 cells/well) in the presence or absence of different compounds at the indicated concentrations. The lower compartment contained 600 μl of serum-free culture media supplemented with growth factors. After an 8-hr incubation at 37° C., cells were fixed and stained with 0.1% crystal violet. Non-migrating cells on the upper surface of the filter were removed, and the stained cells that migrated to the lower side were photographed using a phase-contrast microscope (Nikon, Japan) in five random fields. The cells were lysed with 10% acetic acid, and colorimetric determination was made at 595 nm using Wallac Victor 3 plate reader.
Cancer or endothelial cells were seeded into fibronectin-coated 96-well plates (2×10^4 cells/well). […]
Second, HUVEC were serum starved and treated with PITs (25, 50 100 μM) or PIT-1 is (100 μM) for 8 hr, followed by bFGF (10 ng/ml) stimulation for 15 min. […] The number of cell ruffles/lamellipodia was counted in five random fields.

For assay [2], the system named is U87MG cells. Kind of assay: Long-term colony formation. It is filed as cell-based, human.
In assay [3] the test system is U87MG cells. Kind of assay: Sensitization of U87MG cells to TRAIL, ATP assay. It is filed as cell-based, human. The settings on record: 10 ng/ml TRAIL, 48 hr. The procedure:
FIG. 10 is a bar graph depicting that PITs, as well as Akt inhibitor VIII, sensitize U87MG cells to killing by TRAIL. U87MG cells were incubated with 50 μM PIT-1, PIT-2, PIT-1i-1 or 10 μM Akt inhibitor VIII in the presence or absence of 10 ng/ml TRAIL for 48 hr, followed by cell viability analysis using ATP assay.
Upregulation of PI3K/Akt signaling is an important mechanism of chemoresistance of cancer cells. Blume-Jensen P et al. (2001) Nature 411:355-65; Osaki M et al. (2004) Apoptosis 9:667-76. […] Puduvalli V K et al. (2005) Apoptosis 10:233-43 TRAIL represents a particularly promising anti-cancer agent due to its intrinsic selectivity towards cancer cells which is associated with the expression of the decoy receptors by many (but not all) normal cells. Abe K et al. (2000) Ann NY Acad Sci 926:52-63. […] Oka N et al. (2005) Cancer Res 65:7546-53.

Assay [4] deals with U87MG cells. The experiment in a line: Combination with Akt kinase inhibitors in U87MG cells (western blot, ATP assay). The settings on record: 100 μM PIT-1 with 10 μM Akt inhibitor. It is filed as cell-based, human. The procedure: U87MG cells were treated with 100 μM PIT-1, or 10 μM Akt inhibitor VIII (Calbiochem) or Akt inhibitor (Calbiochem), or 100 μM PIT-1 together with 10 μM Akt inhibitor VIII or Akt inhibitor, for 12 hr and then phosphorylation events were evaluated by western blot.

In the next assay the target is PLC-δ PH domain (Homo sapiens (Human), UniProt P51178). The experiment in a line: FP PIP2/PLC-δ PH domain binding assay. The settings on record: FIG. 5. How it is done:
FIG. 5 is a graph depicting specificity and concentration-dependent competitive inhibition of PIP3-PH domain interaction by PIT-1 and PIT-2. 15 nM TMR-conjugated PIP2 were incubated with 100 nM PLC-δ PH domain in the presence or absence of the indicated concentrations of PITs (0-200 μM) for 30 min, followed by FP measurement.
In order to identify compounds that disrupt the interaction between PIP3 and PH domains, a high-throughput fluorescence polarization (FP)-binding assay was developed using recombinant 1-123 amino acid N-terminal fragment of human Akt1 (also referred to herein simply as Akt), encompassing the PH domain (PH123 protein), and fluorescent NBD-labeled PIP3 molecule. The amino acid sequence of human Akt1 is publicly available as, for example, GenBank Accession No. NP_001014432.1 (SEQ ID NO:1), and the corresponding DNA sequence is publicly available as, for example, GenBank Accession No. NM_001014432. Briefly, 5 μM recombinant GST fusion proteins containing 1-123 a.a. N-terminal fragment of human Akt1 (PH 123) or 100 nM 441-551 a.a. region of human PDK1 were incubated with 15 nM TMR-labeled PIP3, PIP2, or PIP5 in buffer containing 50 mM Tris-HCl (pH 7.5), 150 mM NaCl, and 5 mM b-ME for 15 min at room temperature in the dark. FP values were determined using Wallac Victor 3 plate reader. […]

Chain of PLC-δ PH domain (P51178 21-130): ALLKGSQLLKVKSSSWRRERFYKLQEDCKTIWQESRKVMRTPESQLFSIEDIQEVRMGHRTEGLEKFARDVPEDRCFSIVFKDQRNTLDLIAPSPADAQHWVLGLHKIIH

On to `O=C(NC(=S)Nc1cc([N+](=O)[O-])cc(Cl)c1O)c1ccccc1` [PIT-1], for which the “loss of viability in Akt1-expressing versus Akt1-3 triple knockout fibroblasts” value in assay [1] is given as “more pronounced (P<0.01)”. Further, the “migration of HUVEC cells” value with HUVEC cells is “efficiently blocked migration of HUVEC cells”. Also, the “long-term colony formation by U87MG cells” value in the assay on U87MG cells [2] is reported as “suppressed long-term colony formation”. In addition, the “sensitization of U87MG cells to killing by TRAIL” value in the assay with U87MG cells [3] is “substantially sensitized U87MG cells to killing by TRAIL”. Also, the “combination with Akt kinase inhibitors: Akt activation, downstream phosphorylation, cell survival” value in the assay with U87MG cells [4] is reported as “acted synergistically”. In addition, the “inhibition of interaction between PIP2 and PH domain of PLC-δ” value on PLC-δ PH domain is recorded as “failed to inhibit”.
